Read-outs that look alike come from different tables or passages of the source.
Legend:
CB1 receptor = biological target: T1, CB1 receptor (Mus musculus, UniProt P47746); assay: [35S]GTP-γ-S binding assay in mouse cerebellar membranes, CP55,940-stimulated; format: biochemical; conditions: CP55,940 (100 nM) stimulation, mean (95% confidence interval)
T1 construct: from tissue; host or cells: cerebellar membranes of adult male CD-1 mice
Protocol: Cerebella from adult male CD-1 mice were dissected on ice, snap frozen, and stored at −80° C. until the day of the experiment. Cerebella were homogenized by polytron in membrane buffer (50 mM Tris, 3 mM MgCl2, 0.2 mM EGTA, 100 mM NaCl, pH 7.4) on ice, centrifuged for 10 min at 40,000×g at 4° C. The supernatant was discarded and the pellet was suspended in membrane buffer, homogenized, and centrifuged again for 10 min at 40,000×g. The pellet was resuspended in membrane buffer and protein quantified by Bradford method.
CB1 receptor agonist CP55,940 was employed as the agonist probe.

human CB1 receptor [1] = biological target: T2, human CB1 receptor (Homo sapiens, UniProt P21554); assay: CB1 calcium mobilization assay (antagonist mode, against EC80 of CP55,940); format: cell-based
T2 construct: host or cells: CHO-RD-HGA16 cells (CHO cells overexpressing promiscuous Galpha16)
T2 sequence (P21554 whole entry): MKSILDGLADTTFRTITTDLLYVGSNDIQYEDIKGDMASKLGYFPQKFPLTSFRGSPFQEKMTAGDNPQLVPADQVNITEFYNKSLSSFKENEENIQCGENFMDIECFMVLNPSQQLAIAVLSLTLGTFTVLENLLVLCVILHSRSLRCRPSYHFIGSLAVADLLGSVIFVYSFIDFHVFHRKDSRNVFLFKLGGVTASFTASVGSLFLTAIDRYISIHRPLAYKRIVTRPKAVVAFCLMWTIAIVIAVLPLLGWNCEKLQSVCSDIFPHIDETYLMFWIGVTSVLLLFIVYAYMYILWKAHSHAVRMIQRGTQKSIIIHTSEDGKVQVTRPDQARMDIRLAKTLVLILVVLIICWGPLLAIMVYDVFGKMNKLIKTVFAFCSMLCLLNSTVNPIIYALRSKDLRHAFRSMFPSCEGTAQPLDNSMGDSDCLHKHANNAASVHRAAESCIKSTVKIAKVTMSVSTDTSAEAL
Protocol: CHO-RD-HGA16 cells (Molecular Devices, CA) stably expressing the human CB1 receptor were plated into 96-well black-walled assay plates at 25,000 cells/well in 100 μL of Ham's F12 (supplemented with 10% fetal bovine serum, 100 units of penicillin/streptomycin, and 100 μg/mL Normocin) and incubated overnight at 37° C., 5% CO2. Calcium 5 dye (Molecular Devices, CA) was reconstituted according to the manufacturer's instructions. The reconstituted dye was diluted 1:40 in prewarmed (37° C.) assay buffer (1×HBSS, 20 mM HEPES, 2.5 mM probenecid, pH 7.4 at 37° C.). Growth medium was removed, and the cells were gently washed with 100 μL of prewarmed (37° C.) assay buffer. […] After the pretreatment incubation period, the plate was read with a FLIPR Tetra (Molecular Devices, CA). […] Relative fluorescence units (RFU) were plotted against the log of compound concentrations. Data were fit to a three-parameter logistic curve to generate IC50 values (GraphPad Prism 6.0, CA). […] Test compound RFUs were compared to the CP55,940 Emax RFUs to generate % Emax values.
In these assays, CHO cells that overexpress the promiscuous Gα16 protein were engineered to stably express the CB1 or CB2 receptor. Compounds were evaluated for their ability to decrease the mobilization of intracellular calcium levels stimulated by CP55,940.

human CB1 receptor [2] = biological target: T2, human CB1 receptor; assay: CB1 calcium mobilization assay, agonist screen; format: cell-based; conditions: 10,000 nM final concentration, mean ± SD
Protocol: CHO-RD-HGA16 cells (Molecular Devices, CA) stably expressing the human CB1 receptor were plated into 96-well black-walled assay plates at 25,000 cells/well in 100 μL of Ham's F12 (supplemented with 10% fetal bovine serum, 100 units of penicillin/streptomycin, and 100 μg/mL Normocin) and incubated overnight at 37° C., 5% CO2. Calcium 5 dye (Molecular Devices, CA) was reconstituted according to the manufacturer's instructions. The reconstituted dye was diluted 1:40 in prewarmed (37° C.) assay buffer (1×HBSS, 20 mM HEPES, 2.5 mM probenecid, pH 7.4 at 37° C.). Growth medium was removed, and the cells were gently washed with 100 μL of prewarmed (37° C.) assay buffer. The cells were incubated for 45 min at 37° C., 5% CO2 in 200 μL of the diluted Calcium 5 dye solution. […] Serial dilutions of the test compounds were prepared at 10× the desired final concentration in 2.25% BSA/4.5% DMSO/4.5% EtOH/assay buffer. After the dye loading incubation period, the cells were pretreated with 25 μL of the test compound serial dilutions and incubated for 15 min at 37° C. After the pretreatment incubation period, the plate was read with a FLIPR Tetra (Molecular Devices, CA). Calcium-mediated changes in fluorescence were monitored every 1 s over a 90 s time period, with the Tetra adding 25 μL of the CP55,940 EC80 concentration at the 10s time point (excitation/emission: 485/525 nm). Relative fluorescence units (RFU) were plotted against the log of compound concentrations. Data were fit to a three-parameter logistic curve to generate IC50 values (GraphPad Prism 6.0, CA). […] For agonist screens, the above procedure was followed except that cells were pretreated with 2.25% BSA/4.5% DMSO/4.5% EtOH/assay buffer and the Tetra added single concentration dilutions of the test compounds prepared at 10× the desired final concentration in 0.25% BSA/0.5% DMSO/0.5% EtOH/assay buffer. Test compound RFUs were compared to the CP55,940 Emax RFUs to generate % Emax values.

[3] = Table 1, against EC80 (100 nM) of CP55,940, mean ± S.E.M., read-out: CB1 calcium assay IC50

T1 sequence (P47746 whole entry): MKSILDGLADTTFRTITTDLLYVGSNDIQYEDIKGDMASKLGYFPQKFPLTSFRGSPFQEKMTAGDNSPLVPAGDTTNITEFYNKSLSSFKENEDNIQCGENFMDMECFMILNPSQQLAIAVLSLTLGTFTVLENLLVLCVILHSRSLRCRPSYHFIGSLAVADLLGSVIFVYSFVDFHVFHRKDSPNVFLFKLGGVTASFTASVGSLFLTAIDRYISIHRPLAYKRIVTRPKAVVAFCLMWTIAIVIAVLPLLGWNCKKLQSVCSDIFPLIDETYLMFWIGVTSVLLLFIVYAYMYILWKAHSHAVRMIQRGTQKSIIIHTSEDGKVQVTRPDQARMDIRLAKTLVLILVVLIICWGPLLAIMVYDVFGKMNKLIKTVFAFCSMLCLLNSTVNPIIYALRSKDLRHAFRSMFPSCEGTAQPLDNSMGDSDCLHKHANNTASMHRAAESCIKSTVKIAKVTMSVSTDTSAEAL

Row | Compound | IC50 (human CB1 receptor [1]; [3]) [µM] | CB1 calcium assay Agonist screen (% CP55, 940 Emax) (human CB1 receptor [2]; Table 1) | also measured
1 | O=C(Nc1ccc(Cl)cc1)Nc1cccc(-c2ccc3occc3c2)c1 [Compound 41, 1-[3-(1-Benzofuran-5-yl)phenyl]-3-(4-chlorophenyl)urea] | 0.134 ± 0.013 | 0.2 ± 1.0 % CP55, 940 Emax | IC50 (CB1 receptor): 0.265 µM
2 | O=C(Nc1ccc(Cl)cc1)Nc1cccc(N2CC3(COC3)C2)c1 [Compound 84, 3-(4-Chlorophenyl)-1-(3-{2-oxa-6-azaspiro[3.3]heptan-6-yl}phenyl)urea] | 0.792 ± 0.043 | 28.8 ± 0.2 % CP55, 940 Emax | IC50 (CB1 receptor): > 10 µM
3 | O=C(Nc1ccc(Cl)cc1)Nc1ccc(-c2ccccc2)cc1 [Compound 59, 3-(4-Chlorophenyl)-1-(4-phenylphenyl)urea] |  |  | IC50 (human CB1 receptor [1]; Table 2, against EC80 (100 nM) of CP55,940, mean ± S.E.M., read-out: CB1 calcium assay IC50): 0.066 ± 0.009 µM; CB1 calcium assay Agonist screen (% CP55, 940 Emax) (human CB1 receptor [2]; Table 2): 21 ± 4 % CP55, 940 Emax
4 | O=C(Nc1ccc(Cl)cc1)Nc1cccc(N2CCC2)c1 [Compound 80, 3-[3-(Azetidin-1-yl)phenyl]-1-(4-chlorophenyl)urea] | 0.035 ± 0.005 |  | IC50 (CB1 receptor): 1.38 µM
5 | O=C(Nc1ccc(Cl)cc1)Nc1cccc(N2CCCC2)c1 [Compound 78, 1-(4-Chlorophenyl)-3-[3-(pyrrolidin-1-yl)phenyl]urea] | 0.04 ± 0.004 | 0.6 ± 0.5 % CP55, 940 Emax | 
6 | O=C(Nc1ccc(Cl)cc1)Nc1cccc(-c2cccnc2)c1 [Compound 19, 3-(4-Chlorophenyl)-1-[3-(pyridin-3-yl)phenyl]urea] | 0.244 ± 0.045 | 34.2 ± 9.3 % CP55, 940 Emax | 
7 | COc1cccc(-c2cccc(NC(=O)Nc3ccc(Cl)cc3)c2)n1 [Compound 15, 3-(4-Chlorophenyl)-1-[3-(6-methoxypyridin-2-yl)phenyl]urea] | 0.231 ± 0.014 | 2.4 ± 0.2 % CP55, 940 Emax | 
8 | O=C(Nc1ccc(Cl)cc1)Nc1cccc(-c2ccc(F)cc2F)c1 [Compound 35, 3-(4-Chlorophenyl)-1-[3-(2,4-difluorophenyl)phenyl]urea] | 0.018 ± 0.001 |  | IC50 (CB1 receptor): 0.353 µM
9 | O=C(Nc1ccc(Cl)cc1)Nc1cccc(-c2ccc(Cl)cc2)c1 [Compound 30, 3-(4-Chlorophenyl)-1-[3-(4-chlorophenyl)phenyl]urea] | 0.095 ± 0.009 | 21.3 ± 3.7 % CP55, 940 Emax | 
10 | O=C(Nc1ccc(Cl)cc1)Nc1cccc(-c2c(Cl)cccc2Cl)c1 [Compound 33, 3-(4-Chlorophenyl)-1-[3-(2,6-dichlorophenyl)phenyl]urea] | 0.338 ± 0.019 | 17.2 ± 3.1 % CP55, 940 Emax | 
11 | O=C(Nc1ccc(Cl)cc1)Nc1cccc(N2CCC(F)(F)CC2)c1 [Compound 81, 3-(4-Chlorophenyl)-1-[3-(4,4-difluoropiperidin-1-yl)phenyl]urea] | 0.092 ± 0.009 | 14.0 ± 0.6 % CP55, 940 Emax | 
12 | O=C(Nc1ccc(Cl)cc1)Nc1cccc(-c2ccc3ccccc3c2)c1 [Compound 42, 3-(4-Chlorophenyl)-1-[3-(naphthalen-2-yl)phenyl]urea] |  | 6.9 ± 0.5 % CP55, 940 Emax | IC50 (CB1 receptor): 1.52 µM
13 | O=C(Nc1ccc(Cl)cc1)Nc1cccc(N2C3CCC2CC3)c1 [Compound 82, 3-(4-Chlorophenyl)-1-{3-[(1S,4S)-7-azabicyclo[2.2.1]heptan-7-yl]phenyl}urea] |  | 5.5 ± 1.3 % CP55, 940 Emax | IC50 (human CB1 receptor [1]): 2.7 µM
14 | O=C(Nc1ccc(Cl)cc1)Nc1cccc(N2CCCCC2)c1 [Compound 76, 3-(4-Chlorophenyl)-1-[3-(piperidin-1-yl)phenyl]urea] | 0.174 ± 0.031 | 1.1 ± 0 % CP55, 940 Emax | 
15 | O=C(Nc1ccc(Cl)cc1)Nc1cccc(-c2ccc3ccccc3n2)c1 [Compound 43, 3-(4-Chlorophenyl)-1-[3-(quinolin-2-yl)phenyl]urea] |  | 4.5 ± 0.7 % CP55, 940 Emax | IC50 (CB1 receptor): 1.89 µM
16 | CCN(CC)c1cccc(NC(=O)Nc2ccc(Cl)cc2)c1 [Compound 86, 3-(4-Chlorophenyl)-1-[3-(diethylamino)phenyl]urea] | 0.297 ± 0.037 | 20.9 ± 0.2 % CP55, 940 Emax | 
17 | CC(C)(C)c1cc(-c2cccc(NC(=O)Nc3ccc(Cl)cc3)c2)cc(C(C)(C)C)c1 [Compound 37, 3-(4-Chlorophenyl)-1-[3-(3,5-di-tert-butylphenyl)phenyl]urea] | 0.46 ± 0.039 | 10.4 ± 2.1 % CP55, 940 Emax | 
18 | O=C(Nc1ccc(Cl)cc1)Nc1cccc(N2CCCCCC2)c1 [Compound 83, 1-[3-(Azepan-1-yl)phenyl]-3-(4-chlorophenyl)urea] | 0.35 ± 0.037 | 18.6 ± 1.1 % CP55, 940 Emax | 

Row | Compound | IC50 (human CB1 receptor [1]; [3]) [µM] | CB1 calcium assay Agonist screen (% CP55, 940 Emax) (human CB1 receptor [2]; Table 1) | also measured
19 | O=C(Nc1ccc(Cl)cc1)Nc1cccc(CN2CCCC2)c1 [Compound 90, 3-(4-Chlorophenyl)-1-[3-(pyrrolidin-1-ylmethyl)phenyl]urea] | > 10 | 27.5 ± 4.5 % CP55, 940 Emax | 
20 | O=C(Nc1ccc(Cl)cc1)Nc1cccc(-c2ccc(-c3ccccc3)cc2)c1 [Compound 39, 3-(4-Chlorophenyl)-1-[3-(4-phenylphenyl)phenyl]urea] | 1.34 ± 0.37 | −0.7 ± 2.4 % CP55, 940 Emax | 
21 | O=C(Nc1ccc(Cl)cc1)Nc1cccc(-c2cccc([N+](=O)[O-])c2)c1 [Compound 29, 3-(4-Chlorophenyl)-1-[3-(3-nitrophenyl)phenyl]urea] | 0.027 ± 0.002 |  | IC50 (CB1 receptor): 0.452 µM
22 | CC(C)(C)c1ccc(-c2cccc(NC(=O)Nc3ccc(Cl)cc3)c2)cc1 [Compound 36, 3-(4-Chlorophenyl)-1-[3-(4-tert-butylphenyl)phenyl]urea] | 0.591 ± 0.048 | 4.0 ± 1.0 % CP55, 940 Emax | 
23 | CN1CCN(c2cccc(NC(=O)Nc3ccc(Cl)cc3)c2)CC1 [Compound 79, 1-(4-Chlorophenyl)-3-[3-(4-methylpiperazin-1-yl)phenyl]urea] | 2.88 | 27.6 ± 2.0 % CP55, 940 Emax | 
24 | O=C(Nc1ccc(Cl)cc1)Nc1cccc(-c2cccc(O)c2)c1 [Compound 24, 3-(4-Chlorophenyl)-1-[3-(3-hydroxyphenyl)phenyl]urea] | 0.84 ± 0.13 | 9.8 ± 1.6 % CP55, 940 Emax | 
25 | O=C(Nc1ccc(Cl)cc1)Nc1cccc(-c2ccoc2)c1 [Compound 46, 3-(4-Chlorophenyl)-1-[3-(furan-3-yl)phenyl]urea] | 0.041 ± 0.009 |  | IC50 (CB1 receptor): 0.44 µM
26 | CN(C)c1cccc(NC(=O)Nc2ccc(Cl)cc2)c1 [Compound 85, 1-(4-Chlorophenyl)-3-[3-(dimethylamino)phenyl]urea] | 0.113 ± 0.019 | 14.5 ± 4.9 % CP55, 940 Emax | 
27 | Cc1ccccc1-c1cccc(NC(=O)Nc2ccc(Cl)cc2)c1 [Compound 28, 3-(4-Chlorophenyl)-1-[3-(2-methylphenyl)phenyl]urea] | 0.19 ± 0.045 | 4.4 ± 2.7 % CP55, 940 Emax | 
28 | O=C(Nc1ccc(Cl)cc1)Nc1cccc(-c2ccc3c(c2)Cc2ccccc2-3)c1 [Compound 45, 3-(4-Chlorophenyl)-1-[3-(9H-fluoren-2-yl)phenyl]urea] | 1.26 ± 0.16 | −0.1 ± 0.1 % CP55, 940 Emax | 
29 | Cc1cccc(-c2cccc(NC(=O)Nc3ccc(Cl)cc3)c2)c1 [Compound 27, 3-(4-Chlorophenyl)-1-[3-(3-methylphenyl)phenyl]urea] |  |  | IC50 (CB1 receptor): 0.456 µM
30 | Cc1ccnc(-c2cccc(NC(=O)Nc3ccc(Cl)cc3)c2)c1 [Compound 16, 3-(4-Chlorophenyl)-1-[3-(4-methylpyridin-2-yl)phenyl]urea] |  | 2.9 ± 0.1 % CP55, 940 Emax | 
31 | O=C(Nc1ccc(Cl)cc1)Nc1cccc(-c2cncnc2)c1 [Compound 21, 3-(4-Chlorophenyl)-1-[3-(pyrimidin-5-yl)phenyl]urea] | 0.29 ± 0.024 | 2.5 ± 6.2 % CP55, 940 Emax | 
32 | O=C(Nc1ccc(Cl)cc1)Nc1cccc(-c2ccc(C(=O)c3ccccc3)cc2)c1 [Compound 40, 3-(4-Chlorophenyl)-1-[3-(4-benzoylphenyl)phenyl]urea] |  | 12.9 ± 1.7 % CP55, 940 Emax | 
33 | COc1cccc(NC(=O)Nc2ccc(Cl)cc2)c1 [Compound 91, 3-(4-Chlorophenyl)-1-(3-methoxyphenyl)urea] | 0.52 ± 0.036 | 13.6 ± 2.4 % CP55, 940 Emax | 
34 | O=C(Nc1ccc(Cl)cc1)Nc1cccc(N2CCOCC2)c1 [Compound 77, 1-(4-Chlorophenyl)-3-[3-(morpholin-4-yl)phenyl]urea] | 0.36 ± 0.064 | 12.4 ± 1.8 % CP55, 940 Emax | 
35 | O=C(Nc1ccc(Cl)cc1)Nc1cccc(OC2CCCC2)c1 [Compound 95, 3-(4-Chlorophenyl)-1-[3-(cyclopentyloxy)phenyl]urea] | 0.277 ± 0.036 | 11.7 ± 1.4 % CP55, 940 Emax | 
